These results are taken from patent publication US20230015308A1, “SUBSTITUTED THIAZOLE AROMATIC RING-BASED COMPOUND AND PREPARATION METHOD THEREFOR, HERBICIDAL COMPOSITION AND USE THEREOF” (QINGDAO KINGAGROOT CHEMICAL COMPOUND CO., LTD., priority 2019, published 2023).

What all share (experiment): Weeding effect in post-emergence stage (greenhouse pot test)
Common to all, as to assay type: in vivo
Holding throughout (settings): 15 g a.i./ha, 3 weeks after application

One assay has as its system Abutilon theophrasti. The source says: (§1) The activity level criteria for plant damage (i.e., growth control rate) are as follows:
(§2) Level 5: growth control rate is above 85%;
(§3) Level 4: growth control rate is greater than or equal to 60% and less than 85%;
(§4) Level 3: growth control rate is greater than or equal to 40% and less than 60%;
(§5) Level 2: growth control rate is greater than or equal to 20% and less than 40%;
(§6) Level 1: growth control rate is greater than or equal to 5% and less than 20%;
(§7) Level 0: growth control rate is less than 5%.
(§8) The above growth control rates are fresh weight control rates.
(§9) Experiment on weeding effect in post-emergence stage:
(§10) Monocotyledonous and dicotyledonous weed seeds (Descurainia sophia, Capsella bursa-pastoris, Abutilon theophrasti, Galium aparine, Stellaria media, Lithospermum arvense, Rorippa indica, Alopecurus aequalis, Alopecurus japonicus, Beckmannia syzigachne, Sclerochloa dura, Conyza Canadensis, Phleum paniculatum, Veronica didyma Tenore, Eleusine indica, Bromus japonicus, Aegilops tauschii, Phalaris arundinacea, Amaranthus retroflexus, Chenopodium album, Commelina communis, Sonchus arvensis, Convolvulus arvensis, Cirsium setosum, Solanum nigrum, Acalypha australis, Digitaria sanguinalis, Echinochloa crusgalli, Setaria viridis, Setaria glauca, Leptochloa chinensis, Monochoria vaginalis, Sagittaria trifolia, Scirpus juncoides, Cyperus rotundus, Cyperus iria, Cyperus difformis, Fimbristylis, Portulaca oleracea, Xanthium sibiricum, Pharbitis nil) and major crop seeds (wheat, corn, rice, soybean, cotton, oilseed rape, millet, sorghum, potato, sesame, ricinus) were placed in plastic pots filled with soil, then covered with 0.5-2 cm of soil, allowed to grow in a good greenhouse environment. After 2 weeks of sowing, the test plants were treated in the 2-3 leaf stage. The tested compounds of the present invention were respectively dissolved in acetone, then added with Tween 80 and 1.5 liter/ha of emulsifiable concentrate of methyl oleate as synergist, diluted with a certain amount of water to obtain a solution with a certain concentration, and sprayed with a spray tower onto the plants. After the application, the plants were cultured for 3 weeks in the greenhouse, and then the experimental results of the weeding were counted. The doses of the used compounds were 500, 250, 125, 60, 15 g a.i./ha, and the averages were obtained by repeating for three times.

A further assay relates to Alopecurus japonicus.
Text: as §1, §2, §3, §4, §5, §6, §7, §8, §9, §10

Another assay concerns Amaranthus retroflexus.
Text: as §1, §2, §3, §4, §5, §6, §7, §8, §9, §10

The subject of the next assay is Beckmannia syzigachne.
Text: as §1, §2, §3, §4, §5, §6, §7, §8, §9, §10

For another assay, the system named is Digitaria sanguinalis.
Text: as §1, §2, §3, §4, §5, §6, §7, §8, §9, §10

The next assay deals with Echinochloa crusgalli.
Text: as §1, §2, §3, §4, §5, §6, §7, §8, §9, §10

A further assay concerns Galium aparine.
Text: as §1, §2, §3, §4, §5, §6, §7, §8, §9, §10

The test system of the next assay is Setaria viridis.
Text: as §1, §2, §3, §4, §5, §6, §7, §8, §9, §10

Another assay concerns Veronica didyma Tenore.
Text: as §1, §2, §3, §4, §5, §6, §7, §8, §9, §10

As to `CCOC(=O)c1cnc(-c2cc(-n3c(=O)cc(C(F)(F)F)n(C)c3=O)c(F)cc2Cl)s1` [1-2], in the assay on Abutilon theophrasti, the “Abutilon theophrasti, activity level (fresh weight growth control rate)” value (“Abutilon theophrasti, activity level” for short) was 5 (Level 5: growth control rate is above 85%). Also, the “Alopecurus japonicus, activity level (fresh weight growth control rate)” value (shortened to “Alopecurus japonicus, activity level”) in the assay with Alopecurus japonicus was 4 (Level 4: growth control rate is greater than or equal to 60% and less than 85%). In addition, the “Amaranthus retroflexus, activity level (fresh weight growth control rate)” value (“Amaranthus retroflexus, activity level” below) in the assay with Amaranthus retroflexus was 5 (Level 5: growth control rate is above 85%). Moreover, the “Beckmannia syzigachne, activity level (fresh weight growth control rate)” value (“Beckmannia syzigachne, activity level” below) in the assay with Beckmannia syzigachne is 4 (Level 4: growth control rate is greater than or equal to 60% and less than 85%). In the assay with Digitaria sanguinalis, the “Digitaria sanguinalis, activity level (fresh weight growth control rate)” value (shortened to “Digitaria sanguinalis, activity level”) is listed as 5 (Level 5: growth control rate is above 85%). Also, the “Echinochloa crusgalli, activity level (fresh weight growth control rate)” value (“Echinochloa crusgalli, activity level” for short) in the assay with Echinochloa crusgalli is 5 (Level 5: growth control rate is above 85%). Besides, the “Galium aparine, activity level (fresh weight growth control rate)” value (“Galium aparine, activity level” below) in the assay on Galium aparine is given as 5 (Level 5: growth control rate is above 85%). In addition, the “Setaria viridis, activity level (fresh weight growth control rate)” value (“Setaria viridis, activity level” below) with Setaria viridis was 5 (Level 5: growth control rate is above 85%). For the same compound, in the assay with Veronica didyma Tenore, the “Veronica didyma Tenore, activity level (fresh weight growth control rate)” value (“Veronica didyma Tenore, activity level” for short) is listed as 5 (Level 5: growth control rate is above 85%).

As for `C=CCOC(=O)c1cnc(-c2cc(-n3c(=O)cc(C(F)(F)F)n(C)c3=O)c(F)cc2Cl)s1` [1-10], in the assay on Abutilon theophrasti, the “Abutilon theophrasti, activity level” value is 5 (Level 5: growth control rate is above 85%). The “Alopecurus japonicus, activity level” value with Alopecurus japonicus was 3 (Level 3: growth control rate is greater than or equal to 40% and less than 60%). In addition, in the assay on Amaranthus retroflexus, the “Amaranthus retroflexus, activity level” value is recorded as 5 (Level 5: growth control rate is above 85%). The “Beckmannia syzigachne, activity level” value with Beckmannia syzigachne was 3 (Level 3: growth control rate is greater than or equal to 40% and less than 60%). Besides, the “Digitaria sanguinalis, activity level” value with Digitaria sanguinalis was 4 (Level 4: growth control rate is greater than or equal to 60% and less than 85%). The “Echinochloa crusgalli, activity level” value in the assay with Echinochloa crusgalli is 5 (Level 5: growth control rate is above 85%). In the assay on Galium aparine, the “Galium aparine, activity level” value is reported as 5 (Level 5: growth control rate is above 85%). Also, the “Setaria viridis, activity level” value in the assay on Setaria viridis was 5 (Level 5: growth control rate is above 85%). Also, in the assay with Veronica didyma Tenore, the “Veronica didyma Tenore, activity level” value is recorded as 5 (Level 5: growth control rate is above 85%).

As for `C#CCOC(=O)c1cnc(-c2cc(-n3c(=O)cc(C(F)(F)F)n(C)c3=O)c(F)cc2Cl)s1` [1-12], the “Abutilon theophrasti, activity level” value in the assay on Abutilon theophrasti is recorded as 5 (Level 5: growth control rate is above 85%). Moreover, in the assay with Alopecurus japonicus, the “Alopecurus japonicus, activity level” value is 3 (Level 3: growth control rate is greater than or equal to 40% and less than 60%). Also, the “Amaranthus retroflexus, activity level” value in the assay on Amaranthus retroflexus is 5 (Level 5: growth control rate is above 85%). Moreover, the “Beckmannia syzigachne, activity level” value with Beckmannia syzigachne is 3 (Level 3: growth control rate is greater than or equal to 40% and less than 60%). The “Digitaria sanguinalis, activity level” value with Digitaria sanguinalis is 5 (Level 5: growth control rate is above 85%). Moreover, the “Echinochloa crusgalli, activity level” value in the assay on Echinochloa crusgalli is 5 (Level 5: growth control rate is above 85%). In the assay with Galium aparine, the “Galium aparine, activity level” value is recorded as 5 (Level 5: growth control rate is above 85%). Also, the “Setaria viridis, activity level” value with Setaria viridis was 5 (Level 5: growth control rate is above 85%). For the same compound, the “Veronica didyma Tenore, activity level” value in the assay on Veronica didyma Tenore is recorded as 5 (Level 5: growth control rate is above 85%).

`Cn1c(C(F)(F)F)cc(=O)n(-c2cc(-c3ncc(C(=O)OCc4ccccc4)s3)c(Cl)cc2F)c1=O` [1-35]: the “Abutilon theophrasti, activity level” value with Abutilon theophrasti is given as 5 (Level 5: growth control rate is above 85%). The “Amaranthus retroflexus, activity level” value in the assay with Amaranthus retroflexus was 5 (Level 5: growth control rate is above 85%). Also, the “Digitaria sanguinalis, activity level” value in the assay on Digitaria sanguinalis is 3 (Level 3: growth control rate is greater than or equal to 40% and less than 60%). In addition, the “Echinochloa crusgalli, activity level” value with Echinochloa crusgalli is 4 (Level 4: growth control rate is greater than or equal to 60% and less than 85%). In addition, the “Galium aparine, activity level” value with Galium aparine is reported as 5 (Level 5: growth control rate is above 85%). The “Setaria viridis, activity level” value in the assay on Setaria viridis is 5 (Level 5: growth control rate is above 85%). For the same compound, the “Veronica didyma Tenore, activity level” value in the assay on Veronica didyma Tenore was 5 (Level 5: growth control rate is above 85%).

On to `COC(=O)C(C)OC(=O)c1cnc(-c2cc(-n3c(=O)cc(C(F)(F)F)n(C)c3=O)c(F)cc2Cl)s1` (centres unmarked) [1-48], for which, in the assay with Abutilon theophrasti, the “Abutilon theophrasti, activity level” value is 5 (Level 5: growth control rate is above 85%). Moreover, in the assay on Amaranthus retroflexus, the “Amaranthus retroflexus, activity level” value was 5 (Level 5: growth control rate is above 85%). The “Digitaria sanguinalis, activity level” value in the assay with Digitaria sanguinalis is 4 (Level 4: growth control rate is greater than or equal to 60% and less than 85%). Further, the “Echinochloa crusgalli, activity level” value with Echinochloa crusgalli is 5 (Level 5: growth control rate is above 85%). Moreover, the “Galium aparine, activity level” value in the assay on Galium aparine is on record as 5 (Level 5: growth control rate is above 85%). Further, the “Setaria viridis, activity level” value in the assay with Setaria viridis is 5 (Level 5: growth control rate is above 85%). Further, the “Veronica didyma Tenore, activity level” value in the assay on Veronica didyma Tenore is recorded as 5 (Level 5: growth control rate is above 85%).

As to `CC(C)=NOC(=O)c1cnc(-c2cc(-n3c(=O)cc(C(F)(F)F)n(C)c3=O)c(F)cc2Cl)s1` [1-55], the “Abutilon theophrasti, activity level” value in the assay on Abutilon theophrasti was 5 (Level 5: growth control rate is above 85%). The “Amaranthus retroflexus, activity level” value in the assay on Amaranthus retroflexus is given as 5 (Level 5: growth control rate is above 85%). In the assay with Digitaria sanguinalis, the “Digitaria sanguinalis, activity level” value is 5 (Level 5: growth control rate is above 85%). Besides, the “Echinochloa crusgalli, activity level” value with Echinochloa crusgalli was 5 (Level 5: growth control rate is above 85%). The “Galium aparine, activity level” value with Galium aparine is on record as 5 (Level 5: growth control rate is above 85%). Moreover, the “Setaria viridis, activity level” value in the assay with Setaria viridis is recorded as 5 (Level 5: growth control rate is above 85%). Also, in the assay on Veronica didyma Tenore, the “Veronica didyma Tenore, activity level” value is on record as 5 (Level 5: growth control rate is above 85%).

On to `CCOC(=O)c1csc(-c2cc(-n3c(=O)cc(C(F)(F)F)n(C)c3=O)c(F)cc2Cl)n1` [2-2], for which the “Abutilon theophrasti, activity level” value in the assay on Abutilon theophrasti is 5 (Level 5: growth control rate is above 85%). Besides, the “Amaranthus retroflexus, activity level” value with Amaranthus retroflexus is recorded as 5 (Level 5: growth control rate is above 85%). The “Digitaria sanguinalis, activity level” value with Digitaria sanguinalis was 4 (Level 4: growth control rate is greater than or equal to 60% and less than 85%). The “Galium aparine, activity level” value in the assay with Galium aparine is 5 (Level 5: growth control rate is above 85%). In the assay with Veronica didyma Tenore, the “Veronica didyma Tenore, activity level” value is given as 5 (Level 5: growth control rate is above 85%).

For `CCOC(=O)c1csc(-c2cc(-n3c(=O)n(C)c(=S)n(C)c3=O)c(F)cc2Cl)n1` [2-113], the “Amaranthus retroflexus, activity level” value in the assay with Amaranthus retroflexus is 5 (Level 5: growth control rate is above 85%). For the same compound, the “Galium aparine, activity level” value in the assay on Galium aparine is on record as 5 (Level 5: growth control rate is above 85%). In the assay with Veronica didyma Tenore, the “Veronica didyma Tenore, activity level” value was 5 (Level 5: growth control rate is above 85%).

As for `COC(=O)c1nc(-c2cc(-n3c(=O)cc(C(F)(F)F)n(C)c3=O)c(F)cc2Cl)cs1` [4-1], the “Amaranthus retroflexus, activity level” value with Amaranthus retroflexus is recorded as 5 (Level 5: growth control rate is above 85%). Besides, the “Echinochloa crusgalli, activity level” value in the assay with Echinochloa crusgalli is 4 (Level 4: growth control rate is greater than or equal to 60% and less than 85%). Besides, in the assay with Veronica didyma Tenore, the “Veronica didyma Tenore, activity level” value is 5 (Level 5: growth control rate is above 85%).

As for `COC(=O)c1nc(-c2cc(-n3c(=O)n(C)c(=S)n(C)c3=O)c(F)cc2Cl)cs1` [4-158], in the assay on Amaranthus retroflexus, the “Amaranthus retroflexus, activity level” value is reported as 5 (Level 5: growth control rate is above 85%). In addition, the “Galium aparine, activity level” value in the assay with Galium aparine is 5 (Level 5: growth control rate is above 85%). Moreover, the “Veronica didyma Tenore, activity level” value in the assay on Veronica didyma Tenore is recorded as 5 (Level 5: growth control rate is above 85%).
